Reference: patent US6482815B1 (priority 1999, dated 2002)
Read-outs that look alike come from different tables or passages of the source.

What was measured:
NALM-6 [1] = test: Anti-proliferative activity (colony counts), NALM-6; type: cell-based, human
From the text: (§1) The dose-responsive anti-proliferative activity of various organic arsenic acid substituted compounds against leukemic cell lines (NALM-6 and MOLT-3) is shown below in Table 3. FIGS. 3A-3F show dose response curves in ALL1, NALM-6, and MOLT-3 cells.

RS4;11 = test: cells; type: cell-based; details: Homo sapiens, RS4-11, read-out: RS4;11 IC50
NALM-6 cells = test: MTT cytotoxicity over 1-4 days versus arsenic trioxide, NALM-6; details: for IC50: Homo sapiens
NALM-6 [2] = test: In situ detection of apoptosis (nick-end-labeling, ApopTag), NALM-6; type: cell-based, human; details: NALM-6, WHI-P381 2 μg/ml, 36 hour incubation (FIG. 1B)
Method: (§2) Assay for apoptosis was performed by the in situ nick-end-labeling method using an ApopTag in situ detection kit (Oncor, Gaithersburg, Md.) according to the manufacturer's recommendations. Exponentially growing cells (NALM-6 and MOLT-3) were seeded in 6-well tissue culture plates at a density of 50×10^4 cells/well and cultured for 36 hours at 37° C. in a humidified 5% CO2 atmosphere. The supernatant culture medium was carefully aspirated and replaced with fresh medium alone or fresh medium containing WHI-P381 at a concentration of 2 μg/ml.
(§3) After a 36 hour incubation at 37° C. in a humidified 5% CO2 incubator, the supernatants were carefully aspirated and the cells were treated for 1-2 minutes with 0.1% trypsin. The detached cells were collected into a 15 ml centrifuge tube, washed with medium and pelleted by centrifugation at 1000 rpm for 5 minutes. Cells were resuspended in 50 μl of PBS, transferred to poly-L-lysine coated coverslips and allowed to attach for 15 minutes. The cells were washed once with PBS and incubated with equilibration buffer for 10 minutes at room temperature.
(§4) After removal of the equilibration buffer, cells were incubated for 1 hour at 37° C. with the reaction mixture containing terminal deoxynucleotidyl transferase (TdT) and digoxigenin-11-UTP for labeling of exposed 3′-hydroxyl ends of fragmented nuclear DNA. […]

primary leukemic cells = test: MTT cytotoxicity against primary leukemic cells; details: cells from 5 leukemia patients, FIGS. 4A-4E
ALL1 = test: cells; type: cell-based; details: Homo sapiens, read-out: ALL1 IC50
MOLT-3 [3] = test: Anti-proliferative activity (colony counts), MOLT-3; type: cell-based, human
From the text: as §1

MOLT-3 [4] = test: cells; type: cell-based; details: Homo sapiens, MOLT-3, read-out: MOLT-3 IC50
NALM-6 [5] = test: cells; type: cell-based; details: Homo sapiens, NALM-6, read-out: NALM-6 IC50
BT20 [6] = test: cells; details: Homo sapiens, BT-20, read-out: BT20 IC50
BT20 [7] = system: BT20
[8] = system: leukemic cell lines (NALM-6, MOLT-3, ALL1, RS4;11); test: cells; details: Homo sapiens, read-out: IC50 values in leukemic cell lines
MOLT-3 [9] = test: In situ detection of apoptosis (nick-end-labeling, ApopTag), MOLT-3; type: cell-based, human; details: MOLT-3, WHI-P381 2 μg/ml, 36 hour incubation (FIG. 1D)
Method: as §2, §3, §4

[10] = NALM-6, concentration 0.1 (mM as printed)
[11] = NALM-6, concentration 1 (mM as printed)
[12] = NALM-6, concentration 10 (mM as printed)
[13] = NALM-6, concentration 100 (mM as printed)
[14] = MOLT-3, concentration 0.1 (mM as printed)
[15] = MOLT-3, concentration 1 (mM as printed)
[16] = MOLT-3, concentration 10 (mM as printed)
[17] = MOLT-3, concentration 100 (mM as printed)

## CSc1nccc(Nc2ccccc2[As](=O)(O)O)n1 [WHI-P381, 2-Methylthio4-(2′-phenylarsenic acid)-aminopyrimidine]
NALM-6 [1]; [10]
  % Inhibition: 100%
  Mean No. of Colonies/10^6 Cells: 0 Colonies/10^6 Cells
NALM-6 [1]; [11]
  % Inhibition: 100%
  Mean No. of Colonies/10^6 Cells: 0 Colonies/10^6 Cells
NALM-6 [1]; [12]
  % Inhibition: 100%
  Mean No. of Colonies/10^6 Cells: 0 Colonies/10^6 Cells
NALM-6 [1]; [13]
  % Inhibition: 100%
  Mean No. of Colonies/10^6 Cells: 0 Colonies/10^6 Cells
other
  melting point: 225 to 228 °C
RS4;11
  IC50: < 1900 nM
NALM-6 cells; NALM-6, 24 h, read-out: Cytotoxicity against NALM-6 cells IC50, Day 1
  IC50: 2030 nM
NALM-6 cells; NALM-6, 48 h, read-out: Cytotoxicity against NALM-6 cells IC50, Day 2
  IC50: 850 nM
NALM-6 cells; NALM-6, 72 h, read-out: Cytotoxicity against NALM-6 cells IC50, Day 3
  IC50: 700 nM
NALM-6 cells; NALM-6, 96 h, read-out: Cytotoxicity against NALM-6 cells IC50, Day 4
  IC50: 680 nM
NALM-6 cells; NALM-6, 0.07 μM to 5 μM, 1-4 days, FIGS. 2A-2D
  cytotoxicity compared with arsenic trioxide (in words): more cytotoxic than arsenic trioxide
NALM-6 [2]
  apoptosis: fluorescence versus untreated cells: much greater Fluorescence
Primary leukemic cells
  cytotoxic activity against primary leukemic cells (in words): susceptible to the cytotoxic effects
ALL1
  IC50: < 1900 nM
MOLT-3 [3]; [14]
  % Inhibition: 70.2%
  Mean No. of Colonies/10^6 Cells: 429(202, 656) Colonies/10^6 Cells
MOLT-3 [3]; [15]
  % Inhibition: 100%
  Mean No. of Colonies/10^6 Cells: 0 Colonies/10^6 Cells
MOLT-3 [3]; [16]
  % Inhibition: 100%
  Mean No. of Colonies/10^6 Cells: 0 Colonies/10^6 Cells
MOLT-3 [3]; [17]
  % Inhibition: 100%
  Mean No. of Colonies/10^6 Cells: 0 Colonies/10^6 Cells
MOLT-3 [4]
  IC50: < 1900 nM
NALM-6 [5]
  IC50: < 1900 nM
BT20 [6]
  IC50: 17300 nM
BT20 [7]
  cytotoxic against the breast cancer cell line BT20 (in words): cytotoxic
[8]
  IC50: ≤ 1900 nM
MOLT-3 [9]
  apoptosis: fluorescence versus untreated cells: much greater Fluorescence
